Data set [1] is described as follows: Estimated solubility of bortezomib in select non-aqueous solvents (visual, incremental solvent addition). The class given is physicochemical. Here is the method:
The appearance of the solution was recorded.

The conditions of data set [2]: cited from earlier work.

In brackets after ≈: the same amount, converted by molar mass.

As to `CC(C)C[C@H](NC(=O)[C@H](Cc1ccccc1)NC(=O)c1cnccn1)B(O)O` [Bortezomib, [(1R)-3-methyl-1-[[(2S)-1-oxo-3-phenyl-2-[(pyrazinylcarbonyl)amino]propyl]amino]butyl] boronic acid], the Observation result in data set [1] (N-methyl pyrrolidone (NMP)) is reported as “Completely dissolved after 1 mL”; in data set [1] (benzyl alcohol), “Completely dissolved after 0.5 mL”; in data set [1] (dimethyl sulfoxide (DMSO)) it was “Completely dissolved after 0.5 mL”; in data set [1] (glycerol) it was “No significant dissolution observed up to 10 mL”; in data set [1] (polyethylene glycol 400) it was “No significant dissolution observed up to 10 mL”. In addition, the results for the “Observation (solvent needed to dissolve approx. 25 mg)” value in data set [1] (alcohol (ethanol)) and in data set [1] (propylene glycol) were “Approximately 5.5 mL of solvent needed” and “Approximately 7 mL of solvent needed”, respectively. Moreover, the “Estimated Solubility” value in data set [1] (in benzyl alcohol) and in data set [1] (in dimethyl sulfoxide (DMSO)) was over 50 mg/mL throughout.

Consider `OCc1ccccc1` [benzyl alcohol], for which the Solubility in water in data set [2] is on record as 35 mg/mL (≈ 324 mM).
